Three compounds from ChEMBL document CHEMBL3407452, “Linear and branched alkyl-esters and amides of gallic acid and other (mono-, di- and tri-) hydroxy benzoyl derivatives as promising anti-HCV inhibitors” (Eur J Med Chem, 2015) can be followed below.

The structures appear in SMILES notation. Active and inactive are the calls of the source. No cut-off for these calls is given here.

Data set [1] relates to Hepatitis C virus. The data set is described as follows: Antiviral activity against HCV genotype 1b I389luc-ubi-neo/NS3-3'/5.1 replicons infected in human Huh5-2 HCV subgenomic replicon-containing cells assessed as reduction in virus replication after 3 days by luciferase reporter gene assay. Type of data set: functional, Hepacivirus hominis. The settings on record: Hepatitis C virus, genotype 1b, Huh-5-2, 72 h; for EC50: read-out: EC50. A general note: Replicon systems follow genome replication, usually without infectious particles.

Data set [2] is described as follows: Cytotoxicity against human Huh5-2 cells after 72 hrs by MTS assay. It is filed as cell-based, Huh-5-2. In general terms: Tetrazolium assays rely on reduction of a dye to a coloured formazan, in cell work by metabolically active cells.
Data set [3] deals with Vesicular stomatitis virus. Put plainly: Antiviral activity against vesicular stomatitis virus. It is filed as functional, organism-based.
The subject of another data set is Coxsackievirus B4. Put plainly: Antiviral activity against human coxsackievirus B4. It is filed as functional, organism-based.
Data set [4] in a line: Selectivity index, ratio of CC50 for human Huh5-2 cells to EC50 for HCV genotype 1b. The arrangement: species or system Huh-5-2.
In the next data set the test system is Feline coronavirus. The data set is described as follows: Antiviral activity against feline coronavirus. It is filed as functional, organism-based.
A further data set relates to Influenza A virus H3N2. The data set is described as follows: Antiviral activity against influenza A virus H3N2. Type of data set: functional, organism-based.
For another data set, the system named is Sindbis virus. Put plainly: Antiviral activity against sindbis virus. Type of data set: functional, organism-based.
Another data set concerns Punta Toro virus. The data set is described as follows: Antiviral activity against punta toro virus. It is filed as functional, organism-based.
The nature of data set [5]: Cytotoxicity against human CEM cells assessed as inhibition of cell proliferation. Type of data set: cell-based. The settings on record: CEM cells (CCRF-CEM).
The next data set relates to Vaccinia virus. The data set is described as follows: Antiviral activity against vaccinia virus. It is filed as functional, organism-based. The settings on record: Orthopoxvirus vaccinia.
Another data set deals with Human respirovirus 3. Put plainly: Antiviral activity against human parainfluenza virus 3. Type of data set: functional, organism-based.
For a further data set, the system named is Reovirus sp. Put plainly: Antiviral activity against reovirus. Type of data set: functional, organism-based.
The next data set concerns Chikungunya virus. The data set is described as follows: Antiviral activity against chikungunya virus. It is filed as functional.
For a further data set, the system named is Felid alphaherpesvirus 1. Put plainly: Antiviral activity against feline herpesvirus. Type of data set: functional, organism-based.
The test system of data set [6] is Human immunodeficiency virus 1. The data set is described as follows: Antiviral activity against HIV1 3B infected in human CEM cells assessed as reduction in virus-induced cytopathicity after 4 to 5 days by microscopy based syncytium cell formation assay. The following applies: Human immunodeficiency virus 1, 3B, CCRF-CEM; read-out: EC50. It is filed as functional, organism-based, CCRF-CEM. For orientation: Cytopathic effects are the visible damage that an infection or toxin causes in cultured cells.

Another data set relates to Influenza A virus. The data set is described as follows: Antiviral activity against influenza A virus (H1N1). Type of data set: functional, organism-based.
Data set [7] concerns Respiratory syncytial virus. The data set is described as follows: Antiviral activity against RSV. Type of data set: functional, organism-based.
Data set [8] deals with Human immunodeficiency virus 2. The data set is described as follows: Antiviral activity against HIV2 ROD infected in human CEM cells assessed as reduction in virus-induced cytopathicity after 4 to 5 days by microscopy based syncytium cell formation assay. It is filed as functional, organism-based, ISOLATE ROD, CCRF-CEM. The following applies: Human immunodeficiency virus 2, ISOLATE ROD, CCRF-CEM; read-out: EC50.

Data set [9] is described as follows: Cytotoxicity against human Huh-9-13 cells after 72 hrs by MTS assay. It is filed as cell-based.
A short description of data set [10]: Cytotoxicity against human Huh-9-13 cells assessed as alteration in cell morphology at 33 uM to 100 uM after 3 days by nile red staining based confocal microscopy. The following applies: 72 h.
The nature of data set [11]: Cytotoxicity against human HuH6 cells after 72 hrs by MTS assay. It is filed as cell-based.
A short description of data set [12]: Cytotoxicity against human Huh-9-13 cells assessed as reduction in cell number at 33 uM to 100 uM after 3 days by nile red staining based confocal microscopy. The following applies: 72 h.
A short description of data set [13]: Induction of phospholipidosis in human Huh-9-13 cells assessed as increase in charged lipid content at 33 uM to 100 uM after 3 days by nile red staining based confocal microscopy. Type of data set: cell-based. The settings on record: 72 h.
The nature of data set [14]: Cytotoxicity against human Huh-9-13 cells assessed as reduction in cell number at 1 uM to 11 uM after 3 days by nile red staining based confocal microscopy. The following applies: 72 h.
Data set [15] in a line: Cytotoxicity against human Huh-9-13 cells assessed as alteration in cell morphology at 1 uM to 11 uM after 3 days by nile red staining based confocal microscopy. The following applies: 72 h.
Data set [16] is described as follows: Induction of phospholipidosis in human Huh-9-13 cells assessed as increase in charged lipid content at 1 uM to 11 uM after 3 days by nile red staining based confocal microscopy. Type of data set: cell-based. The settings on record: 72 h.
In data set [17] the test system is Hepatitis C virus. Put plainly: Antiviral activity against HCV genotype 1b I389luc-ubi-neo/NS3-3'/5.1 replicons infected in human Huh-9-13 HCV subgenomic replicon-containing cells assessed as reduction in virus replication after 3 days by RT-qPCR method. It is filed as functional, Hepacivirus hominis. The settings on record: 72 h.
Data set [18] relates to Hepatitis C virus. Put plainly: Antiviral activity against HCV genotype 1b I389luc-ubi-neo/NS3-3'/5.1 replicons infected in human HuH6 HCV subgenomic replicon-containing cells assessed as reduction in virus replication after 3 days by RT-qPCR method. Type of data set: functional, Hepacivirus hominis. The settings on record: HuH-6, 72 h.

One may read the EC90 as the concentration needed for an effect of 90%. The term EC50 denotes the concentration needed to bring the measured effect to its halfway point. As a reminder, the CC50 is the concentration that lowers cell viability or growth by half. With `CCCCCCCCCCCCOC(=O)c1cc(O)c(O)c(O)c1` [DODECYL GALLATE], in the data set with Hepatitis C virus [1], the EC90 came out at 1.8 µM. The EC50 in the data set with Hepatitis C virus [1] is 0.4 µM; in data set [6], not below 1 µM; in [8], not below 1 µM. In [2], this compound showed a CC50 at 72 h of 8.9 µM. The outcome (in data set [3]; with Coxsackievirus B4; in the data set with Feline coronavirus; with Influenza A virus H3N2; in the data set on Sindbis virus; in the data set with Punta Toro virus) was inactive. The outcome with Vaccinia virus, in the data set with Human respirovirus 3, with Reovirus sp., in the data set on Chikungunya virus, in the data set with Felid alphaherpesvirus 1 and in the data set with Influenza A virus was inactive. In addition, in data set [7], the outcome was inactive. The “Ratio CC50/EC50” value in data set [4] was more than 22. Moreover, the CC50 in [5] came to 2.8 µM.
Take `O=C(OCCCCCCCCCCCCOC(=O)c1cc(O)c(O)c(O)c1)c1cc(O)c(O)c(O)c1`: the EC90 in the data set on Hepatitis C virus [1] was found to be 37 µM. For the same compound, the figures for the EC50 (in the data set on Hepatitis C virus [1]; in data set [6]; in data set [8]) were 6.5 µM, 4.6 µM and more than 10 µM, respectively. Also, the CC50 at 72 h in data set [2] was more than 50 µM. Moreover, the outcome (in [3]; in the data set with Coxsackievirus B4; with Feline coronavirus; in the data set with Influenza A virus H3N2; in the data set with Sindbis virus; in the data set with Punta Toro virus) was inactive. Also, the result in the data set on Vaccinia virus, in the data set with Human respirovirus 3, with Reovirus sp., with Chikungunya virus, in the data set on Felid alphaherpesvirus 1 and in the data set on Influenza A virus was inactive. For the same compound, the outcome in [7] was inactive. In data set [4], the “Ratio CC50/EC50” value was more than 7. In data set [5], the half-maximal cytotoxic concentration (CC50) was determined as 4.7 µM.
Regarding `O=C(NCCCCCCCCCCCCNC(=O)c1ccc(O)c(O)c1O)c1ccc(O)c(O)c1O`, the EC90 with Hepatitis C virus [1] worked out at 6.1 µM. Moreover, the EC50 is 2.5 µM in the data set on Hepatitis C virus [1]; 8.4 µM with Hepatitis C virus [17]; more than 10 µM in data set [6]; 33 µM in the data set with Hepatitis C virus [18]; more than 10 µM in data set [8]. Besides, the CC50 at 72 h in data set [2], in [9] and in data set [11] was more than 100 µM each time. In addition, the outcome (in data set [3]; in the data set with Coxsackievirus B4; with Feline coronavirus; in the data set with Influenza A virus H3N2; with Sindbis virus; in the data set on Punta Toro virus) was inactive. In addition, the outcome in the data set with Vaccinia virus, in the data set on Human respirovirus 3, in the data set with Reovirus sp., with Chikungunya virus, in the data set on Felid alphaherpesvirus 1 and in the data set on Influenza A virus was inactive. The result in [7] was inactive. Also, the “Ratio CC50/EC50” value in data set [4] is on record as more than 40. In addition, the Activity result in [10] is recorded as “Toxic”; in [12], “Toxic”; in [13], “Toxic”; in data set [14], “Non-toxic”; in data set [15], “Non-toxic”; in data set [16] it was “Non-toxic”. Further, the CC50 in data set [5] was 55 µM.
